For orientation: EC50 means the concentration that produces a half-maximal response.

Among the data in ChEMBL document CHEMBL1136685, “Structure-activity relationship of cyclic peptide penta-c[Asp-His(6)-DPhe(7)-Arg(8)-Trp(9)-Lys]-NH(2) at the human melanocortin-1 and -4 receptors: His(6) substitution” (Bioorg Med Chem Lett, 2003) are EC50 values, retold here.

Common to all, as to assay type: functional
Assay [1] deals with T1, Melanocyte-stimulating hormone receptor (Homo sapiens, UniProt Q01726). Put plainly: Agonist activity at human melanocortin receptor (hMC1R).
Target sequence in this assay (Q01726 whole entry): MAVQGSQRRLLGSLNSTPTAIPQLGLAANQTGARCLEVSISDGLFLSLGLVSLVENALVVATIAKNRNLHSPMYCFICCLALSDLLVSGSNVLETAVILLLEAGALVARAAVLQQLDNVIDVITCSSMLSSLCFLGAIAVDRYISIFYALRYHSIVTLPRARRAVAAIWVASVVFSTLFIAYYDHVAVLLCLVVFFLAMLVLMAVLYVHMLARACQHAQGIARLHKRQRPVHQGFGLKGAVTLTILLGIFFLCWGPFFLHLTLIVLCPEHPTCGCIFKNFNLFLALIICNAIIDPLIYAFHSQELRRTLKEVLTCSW
For assay [2], the target named is Melanocortin receptor 4 (Homo sapiens, UniProt P32245). As to the kind of experiment: Agonist activity at human melanocortin receptor (hMC4R).
For the next assay, the target named is Melanocortin receptor 3 (Homo sapiens, UniProt P41968). As to the kind of experiment: Agonistic activity against human melanocortin receptor (hMC3R) for cAMP accumulation. In general terms: Changes in cAMP serve as a functional read-out for many G protein-coupled receptors.
The next assay concerns the target Melanocortin receptor 5 (Homo sapiens, UniProt P33032). As to the kind of experiment: Agonistic activity against human melanocortin receptor (hMC5R) for cAMP accumulation.
Assay [3] has as its target Melanocortin receptor 4. As to the kind of experiment: (§1) Agonistic activity against human melanocortin receptor (hMC1R) for cAMP accumulation.
In assay [4] the target is T1, Melanocyte-stimulating hormone receptor. The assay is described as §1.
Target sequence in this assay (Q01726 whole entry, looked up): as the sequence (Q01726 whole entry) above

Structures are written as SMILES.

Sequence of Melanocortin receptor 4 (Homo sapiens, UniProt P32245) (P32245 whole entry): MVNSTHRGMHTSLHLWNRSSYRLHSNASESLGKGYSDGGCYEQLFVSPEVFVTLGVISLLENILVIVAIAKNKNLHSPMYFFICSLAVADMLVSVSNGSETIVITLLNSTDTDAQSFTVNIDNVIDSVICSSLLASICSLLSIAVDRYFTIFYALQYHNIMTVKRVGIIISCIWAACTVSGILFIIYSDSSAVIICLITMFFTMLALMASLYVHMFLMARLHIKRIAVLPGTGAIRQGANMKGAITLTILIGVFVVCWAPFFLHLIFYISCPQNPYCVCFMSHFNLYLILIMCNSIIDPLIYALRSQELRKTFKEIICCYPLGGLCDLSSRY
Sequence of Melanocortin receptor 5 (P33032 whole entry): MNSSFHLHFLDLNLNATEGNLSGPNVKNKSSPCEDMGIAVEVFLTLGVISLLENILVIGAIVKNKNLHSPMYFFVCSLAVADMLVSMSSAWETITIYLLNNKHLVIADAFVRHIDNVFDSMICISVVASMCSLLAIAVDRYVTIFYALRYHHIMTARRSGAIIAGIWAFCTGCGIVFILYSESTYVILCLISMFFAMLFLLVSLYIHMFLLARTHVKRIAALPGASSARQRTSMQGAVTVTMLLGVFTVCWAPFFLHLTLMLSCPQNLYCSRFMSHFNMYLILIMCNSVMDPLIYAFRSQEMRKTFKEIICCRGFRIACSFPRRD
Sequence of Melanocortin receptor 3 (P41968 whole entry): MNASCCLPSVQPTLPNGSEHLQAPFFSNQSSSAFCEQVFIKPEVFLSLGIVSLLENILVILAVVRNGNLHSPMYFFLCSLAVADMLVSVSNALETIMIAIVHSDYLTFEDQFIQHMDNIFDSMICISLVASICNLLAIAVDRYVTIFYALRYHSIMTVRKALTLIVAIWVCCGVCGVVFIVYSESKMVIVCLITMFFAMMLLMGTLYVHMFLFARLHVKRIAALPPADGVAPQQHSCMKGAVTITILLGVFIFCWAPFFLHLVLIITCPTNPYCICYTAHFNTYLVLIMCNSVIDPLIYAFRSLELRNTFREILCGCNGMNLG

As to `CCCCC(=O)N[C@H]1CC(=O)NCCCC[C@@H](C(N)=O)NC(=O)[C@H](Cc2c[nH]c3ccccc23)NC(=O)[C@H](CCCNC(=N)N)NC(=O)[C@@H](Cc2ccccc2)NC(=O)[C@H](Cc2cnc[nH]2)NC1=O`, the EC50 was 0.4 nM in assay [1], 0.9 nM at Melanocortin receptor 4 [2], 6 nM at Melanocortin receptor 3 and 33 nM at Melanocortin receptor 5.
`CCCCC(=O)N[C@H]1CC(=O)NCCCC[C@@H](C(N)=O)NC(=O)[C@H](Cc2c[nH]c3ccccc23)NC(=O)[C@H](CCCNC(=N)N)NC(=O)[C@@H](Cc2ccccc2)NC(=O)[C@H](Cc2ccc(-c3ccccc3)cc2)NC1=O`: the half-maximal effective concentration (EC50) on Melanocortin receptor 4 [2] is 6 nM; at Melanocortin receptor 4 [3] it was 53 nM.
In the case of `CCCCC(=O)N[C@H]1CC(=O)NCCCC[C@@H](C(N)=O)NC(=O)[C@H](Cc2c[nH]c3ccccc23)NC(=O)[C@H](CCCN=C(N)N)NC(=O)[C@@H](Cc2ccccc2)NC(=O)[C@@H]2c3ccccc3CN2C1=O` (single isomer, unassigned; form 1), the EC50 at Melanocortin receptor 4 [2] stood at 118 nM; in assay [4] it was 56 nM.
